Eight compounds from BindingDB's records for doi:10.1124/jpet.302.1.328 (University of North Carolina at Chapel Hill, 2002) can be followed below.

This test addresses Histamine H1 receptor (Cavia porcellus, UniProt P31389).

Molecules are shown by their SMILES. Several values for one entry are separate records, joined by “and”; a condition that tells them apart may be missing. Equal entries are not always repeated. Some results are limits rather than exact numbers.

Histamine H1 receptor, sequence (P31389 whole entry): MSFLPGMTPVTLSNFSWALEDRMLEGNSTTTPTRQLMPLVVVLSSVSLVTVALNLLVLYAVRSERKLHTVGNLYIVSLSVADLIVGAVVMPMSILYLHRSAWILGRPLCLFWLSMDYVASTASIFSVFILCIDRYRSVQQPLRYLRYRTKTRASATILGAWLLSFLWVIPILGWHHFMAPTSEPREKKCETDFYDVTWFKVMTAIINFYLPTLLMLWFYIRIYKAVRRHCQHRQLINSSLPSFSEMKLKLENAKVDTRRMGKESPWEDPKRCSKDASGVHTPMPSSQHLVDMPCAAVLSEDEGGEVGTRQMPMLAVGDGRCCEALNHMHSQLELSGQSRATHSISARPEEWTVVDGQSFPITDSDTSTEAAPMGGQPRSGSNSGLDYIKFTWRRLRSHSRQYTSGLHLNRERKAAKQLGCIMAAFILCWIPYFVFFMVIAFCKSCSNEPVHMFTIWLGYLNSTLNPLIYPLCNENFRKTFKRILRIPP

The Ki is a measure of affinity in units of concentration, obtained from inhibition or displacement. Read a high Ki as weaker binding. The compound `Nc1nc2c(ncn2[C@@H]2O[C@H](COP(=O)(O)OP(=O)(O)OP(=O)(O)O)C(O)C2O)c(=O)[nH]1` (stereo partly drawn) [+ 1 mM GTP] displayed a Ki greater than 10000 nM.

`Cc1ccc(/C(=C\CN2CCCC2)c2ccccn2)cc1` [Actahist]: the Ki was 0.93 nM and 0.69 nM.

As for `O=C(O)C=CC(=O)Oc1ccc(Cl)cc1` [NSC_6445134], the Ki was 98 nM and 80.1 nM.

Take `CN(C)[C@@H]1Cc2ccccc2[C@H](c2ccccc2)C1` [cis-H2-PAT(+)]: the inhibitory constant (Ki) was 53.8 nM and 77.7 nM.

As to `CN(C)C1Cc2ccccc2C(c2ccccc2)C1` (stereo not drawn) [cis-H2-PAT(+/-)], the Ki is 10.9 nM and 7.87 nM and 1.53 nM and 1.37 nM.

For `CN(C)[C@H]1Cc2ccccc2[C@@H](c2ccccc2)C1` [cis-H2-PAT(-)], the Ki is 3.92 nM and 4.91 nM.

`CN(C)[C@H]1Cc2ccccc2[C@H](c2ccccc2)C1` [trans-H2-PAT(+)]: the inhibition constant Ki is 23 nM and 11.5 nM.

On to `CN(C)[C@@H]1Cc2ccccc2[C@@H](c2ccccc2)C1` [trans-PAT], for which the Ki is 1.15 nM and 0.58 nM.
